Assay results: ChEMBL document CHEMBL1201862, “PubChem BioAssay data set” (2004)
Calls of active or inactive are those of the source.

Tests used:
[1] = HEp-2 cell cytotoxicity, dose response, cytotoxicity control for RSV inhibitor project, HTS (AID 2410); format: functional; details: human respiratory syncytial virus
[2] = cells
[3] = target: T1, Aminopeptidase N (Plasmodium falciparum FcB1/Columbia, UniProt O96935); assay: P. falciparum M1AAP inhibitors, biochemical, fluorogenic H-Leu-NHMec substrate, 1536-well (AID 1445); design: species or system Plasmodium falciparum 3D7, 3D7
T1 sequence (O96935 whole entry): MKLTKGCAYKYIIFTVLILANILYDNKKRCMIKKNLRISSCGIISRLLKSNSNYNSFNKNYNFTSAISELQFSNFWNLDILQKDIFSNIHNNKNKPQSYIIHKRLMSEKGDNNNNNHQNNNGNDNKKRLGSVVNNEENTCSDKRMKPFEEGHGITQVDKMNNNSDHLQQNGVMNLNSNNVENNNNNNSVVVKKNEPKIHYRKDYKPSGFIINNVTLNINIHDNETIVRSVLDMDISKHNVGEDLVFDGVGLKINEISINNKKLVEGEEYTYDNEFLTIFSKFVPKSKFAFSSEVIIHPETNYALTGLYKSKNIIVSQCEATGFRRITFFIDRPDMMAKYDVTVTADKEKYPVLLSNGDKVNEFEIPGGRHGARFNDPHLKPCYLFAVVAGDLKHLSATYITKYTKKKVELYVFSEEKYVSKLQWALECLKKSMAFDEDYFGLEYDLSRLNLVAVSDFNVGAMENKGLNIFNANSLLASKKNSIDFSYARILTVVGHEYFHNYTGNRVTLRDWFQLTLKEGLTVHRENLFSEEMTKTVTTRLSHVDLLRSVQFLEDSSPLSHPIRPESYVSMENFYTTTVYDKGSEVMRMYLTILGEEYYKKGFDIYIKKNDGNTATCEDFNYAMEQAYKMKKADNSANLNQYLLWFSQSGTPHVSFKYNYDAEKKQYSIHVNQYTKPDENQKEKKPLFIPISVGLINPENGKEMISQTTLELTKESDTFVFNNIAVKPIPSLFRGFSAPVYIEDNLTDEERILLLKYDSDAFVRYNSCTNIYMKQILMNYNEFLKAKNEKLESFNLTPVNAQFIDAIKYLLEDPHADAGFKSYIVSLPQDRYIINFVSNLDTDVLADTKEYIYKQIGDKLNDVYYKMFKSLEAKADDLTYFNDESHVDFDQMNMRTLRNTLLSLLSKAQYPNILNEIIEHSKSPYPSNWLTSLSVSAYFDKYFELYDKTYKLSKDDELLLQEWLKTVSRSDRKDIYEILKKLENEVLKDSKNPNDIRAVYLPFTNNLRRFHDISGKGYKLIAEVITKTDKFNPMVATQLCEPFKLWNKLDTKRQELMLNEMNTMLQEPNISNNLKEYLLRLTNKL

[4] = inhibitors of PGC1a acetylation in cells, dose response, cell-based, cherry-picked samples (AID 720514); format: functional;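 also: potency may reflect raised or lowered acetylation signal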
[5] = cells; format: functional
[6] = test system: H4; assay: Luminescence Cell-Based Dose Response HTS to Identify Activators of 5'UTR Stem-Loop Driven Prion Protein mRNA Translation in H4 Neuroglioblastoma Cells. [Related pubchem assays: 1829 (Project Summary), 1814 (Primary HTS)]; format: functional; details: Homo sapiens
[7] = cells; format: functional, cell-based
[8] = cells; format: functional, cell-based; remark: listed apart in the source
[9] = Luminescence Cell-Based Dose Confirmation HTS to Identify Activators of 5'UTR Stem-Loop Driven Alpha-Synuclein mRNA Translation in H4 Neuroglioblastoma Cells. [Related pubchem assays: 1829 (Project Summary), 1814 (Primary HTS)]; format: functional
[10] = Luminescence Cell-Based Dose Response HTS to Identify Activators of Luciferase Translation or Activity in H4 […] Cells. [Related pubchem assays: 1829 (Project Summary), 1814 (Primary HTS)]; format: functional
[11] = THP-1 cell cytotoxicity, dose response, cytotoxicity control for non-replicating M. tuberculosis project (AID 489025); format: functional
[12] = ADAM10 protease inhibitors, dose response, selectivity assay for ADAM17 exosite inhibitor project, biochemical, FRET peptide substrate, recombinant human ADAM10 (AID 743259);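 also: ADAM10 enzyme cleaving a FRET peptide substrate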
[13] = target: Disintegrin and metalloproteinase domain-containing protein 17 (Homo sapiens, UniProt P78536); assay: exosite inhibitors of ADAM17, dose response, biochemical (AID 743260)
Disintegrin and metalloproteinase domain-containing protein 17, sequence (P78536 whole entry, the tested form may be a part): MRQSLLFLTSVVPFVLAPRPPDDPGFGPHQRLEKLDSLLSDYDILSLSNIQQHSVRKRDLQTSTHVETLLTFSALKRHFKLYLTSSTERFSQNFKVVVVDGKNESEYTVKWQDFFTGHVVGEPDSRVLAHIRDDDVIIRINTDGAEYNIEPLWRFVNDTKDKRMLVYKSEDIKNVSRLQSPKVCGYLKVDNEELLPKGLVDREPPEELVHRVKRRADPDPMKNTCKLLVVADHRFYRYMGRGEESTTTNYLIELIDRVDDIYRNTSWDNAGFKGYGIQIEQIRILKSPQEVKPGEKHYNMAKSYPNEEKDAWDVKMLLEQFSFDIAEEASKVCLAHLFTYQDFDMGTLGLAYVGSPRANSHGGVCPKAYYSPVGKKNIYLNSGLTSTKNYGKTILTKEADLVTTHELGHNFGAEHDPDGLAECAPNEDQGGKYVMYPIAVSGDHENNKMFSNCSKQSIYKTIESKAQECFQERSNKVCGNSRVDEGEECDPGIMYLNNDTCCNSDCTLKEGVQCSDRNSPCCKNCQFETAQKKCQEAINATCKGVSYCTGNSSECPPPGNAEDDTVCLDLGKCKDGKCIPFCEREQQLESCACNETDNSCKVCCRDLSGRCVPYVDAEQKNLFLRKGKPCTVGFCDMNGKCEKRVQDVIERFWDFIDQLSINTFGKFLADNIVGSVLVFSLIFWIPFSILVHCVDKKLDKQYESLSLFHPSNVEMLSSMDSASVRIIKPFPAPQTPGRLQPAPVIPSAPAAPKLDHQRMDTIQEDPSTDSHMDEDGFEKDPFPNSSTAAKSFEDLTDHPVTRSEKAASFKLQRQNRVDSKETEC

[14] = target: Nonstructural protein 1 (Influenza A virus, UniProt Q194T2); format: functional, Influenza A virus (A/California/07/2009(H1N1))
Nonstructural protein 1, sequence (Q194T2 whole entry): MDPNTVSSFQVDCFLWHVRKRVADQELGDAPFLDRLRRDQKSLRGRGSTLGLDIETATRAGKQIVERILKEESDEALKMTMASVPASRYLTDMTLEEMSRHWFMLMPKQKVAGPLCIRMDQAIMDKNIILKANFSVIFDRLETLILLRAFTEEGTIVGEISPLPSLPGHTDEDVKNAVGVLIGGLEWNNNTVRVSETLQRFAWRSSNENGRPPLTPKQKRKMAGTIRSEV

[15] = target: T2, Heat shock factor protein 1 (Mus musculus, UniProt P38532); assay: HSF1 potentiators in luciferase reporter cells, confirmation, cell-based, NIH3T3, luminescence, dose retest (AID 435004); format: functional;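 also: stress induced by proteasome inhibitor MG132 added 30 min after compound; luciferase reporter driven by HSF1 response element in NIH3T3 cells; actives raise luminescence as potentiators of the MG132 stress response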
T2 sequence (P38532 whole entry): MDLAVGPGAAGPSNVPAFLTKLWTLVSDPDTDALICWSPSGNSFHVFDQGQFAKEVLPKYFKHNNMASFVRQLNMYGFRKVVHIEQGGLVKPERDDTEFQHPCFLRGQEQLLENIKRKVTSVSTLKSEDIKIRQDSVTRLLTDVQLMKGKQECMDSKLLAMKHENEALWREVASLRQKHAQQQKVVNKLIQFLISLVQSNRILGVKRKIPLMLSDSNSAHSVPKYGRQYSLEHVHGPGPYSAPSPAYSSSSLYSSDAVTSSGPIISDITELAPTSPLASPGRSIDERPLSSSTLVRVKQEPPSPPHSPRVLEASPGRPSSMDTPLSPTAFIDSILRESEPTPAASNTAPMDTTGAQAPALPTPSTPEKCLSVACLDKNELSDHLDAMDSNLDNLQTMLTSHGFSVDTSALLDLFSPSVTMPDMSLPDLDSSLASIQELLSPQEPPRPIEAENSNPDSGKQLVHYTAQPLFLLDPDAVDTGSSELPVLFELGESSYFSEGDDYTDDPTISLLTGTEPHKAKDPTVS

[16] = target: T3, Replicative DNA helicase DnaB (Mycobacterium tuberculosis, UniProt P9WMR3); assay: DnaB intein splicing inhibitors, dose response, biochemical, cell-free fluorescence (AID 449749); format: functional
T3 sequence (P9WMR3 whole entry): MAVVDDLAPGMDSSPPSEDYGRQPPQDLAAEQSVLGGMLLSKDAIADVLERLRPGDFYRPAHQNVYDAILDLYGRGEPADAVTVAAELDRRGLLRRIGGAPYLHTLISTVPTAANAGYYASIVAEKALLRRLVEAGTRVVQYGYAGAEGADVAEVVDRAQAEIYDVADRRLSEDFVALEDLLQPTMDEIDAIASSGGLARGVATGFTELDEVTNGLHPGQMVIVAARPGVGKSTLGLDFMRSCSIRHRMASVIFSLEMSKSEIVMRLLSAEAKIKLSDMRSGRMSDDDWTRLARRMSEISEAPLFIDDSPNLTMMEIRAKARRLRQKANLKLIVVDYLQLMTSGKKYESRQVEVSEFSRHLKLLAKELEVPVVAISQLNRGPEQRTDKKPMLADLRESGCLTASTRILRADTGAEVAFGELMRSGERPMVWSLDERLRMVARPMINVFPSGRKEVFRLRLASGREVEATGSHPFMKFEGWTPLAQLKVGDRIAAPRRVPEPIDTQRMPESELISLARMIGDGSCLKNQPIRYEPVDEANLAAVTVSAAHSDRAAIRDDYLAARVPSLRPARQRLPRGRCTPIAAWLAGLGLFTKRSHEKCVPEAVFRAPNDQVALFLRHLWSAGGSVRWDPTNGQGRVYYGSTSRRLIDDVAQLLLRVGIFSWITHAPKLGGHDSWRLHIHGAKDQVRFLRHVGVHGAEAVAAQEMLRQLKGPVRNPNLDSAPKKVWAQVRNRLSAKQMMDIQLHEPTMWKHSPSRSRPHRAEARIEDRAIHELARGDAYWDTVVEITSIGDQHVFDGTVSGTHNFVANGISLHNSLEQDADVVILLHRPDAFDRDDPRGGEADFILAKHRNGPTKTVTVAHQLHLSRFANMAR

[17] = target: T4, Protein RecA (Mycobacterium tuberculosis, UniProt P9WHJ3); assay: Fluorescence Cell-Free Homogeneous Dose Retest to Identify Inhibitors of RecA-Intein Splicing Activity. [Related pubchem assays (depositor defined):AID2097, AID2223, AID489010, AID492950]; format: functional
T4 sequence (P9WHJ3 whole entry): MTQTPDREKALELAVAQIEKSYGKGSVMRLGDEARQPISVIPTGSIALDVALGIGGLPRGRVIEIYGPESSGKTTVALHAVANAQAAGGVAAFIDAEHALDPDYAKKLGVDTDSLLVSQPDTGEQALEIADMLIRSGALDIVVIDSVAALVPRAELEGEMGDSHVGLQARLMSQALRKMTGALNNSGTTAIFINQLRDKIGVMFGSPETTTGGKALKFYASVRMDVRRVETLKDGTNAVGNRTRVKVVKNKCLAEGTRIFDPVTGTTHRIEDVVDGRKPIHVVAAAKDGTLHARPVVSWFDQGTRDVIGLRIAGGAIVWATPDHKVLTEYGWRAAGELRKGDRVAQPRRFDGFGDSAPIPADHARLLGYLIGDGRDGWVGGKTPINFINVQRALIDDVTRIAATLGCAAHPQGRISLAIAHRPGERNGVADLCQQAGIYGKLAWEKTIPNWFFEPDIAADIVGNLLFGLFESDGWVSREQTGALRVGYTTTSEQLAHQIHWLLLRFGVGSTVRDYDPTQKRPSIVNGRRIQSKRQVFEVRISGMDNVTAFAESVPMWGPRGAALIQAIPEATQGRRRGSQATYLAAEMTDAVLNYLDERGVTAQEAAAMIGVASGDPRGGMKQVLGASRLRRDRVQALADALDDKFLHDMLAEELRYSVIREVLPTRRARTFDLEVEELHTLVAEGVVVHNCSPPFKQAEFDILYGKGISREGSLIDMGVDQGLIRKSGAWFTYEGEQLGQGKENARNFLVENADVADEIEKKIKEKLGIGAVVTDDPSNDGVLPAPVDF

[18] = intracellular Trypanosoma cruzi inhibitors in host cells – cell-based, plate reader, cherry-pick samples, set 3, dose response (AID 651818); format: functional;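 also: compounds incubated with infected cells for about four days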
[19] = ZM109 Env clade C HIV-1 fusion inhibitors, dose response, HeLa effector, CEM target cells, luciferase, cherry-pick (AID 652058); format: functional, cell-based
[20] = inhibitors of HIV Env-driven cell fusion, dose response, cherry-pick (AID 652057); format: functional, cell-based
[21] = inhibitors of clade B AD8 Env fusion, dose response, cell-based, cherry-pick (AID 652062); format: functional;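 also: luciferase signal from cell-cell fusion driven by HIV-1 clade B AD8 Env; potency is for inhibitors of fusion seen as a drop in luminescence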

## CC(C)[C@H](NC(=O)N1CCn2c1nc1ccccc12)C(=O)NCc1ccccc1Cl
[1]
  CC50: 46.3 µM (active)
[2]
  IC50: 35.8 µM (active)

## COc1ccc(C(=O)NNC(=O)CSc2nnc(-c3ccc(O)cc3)n2C)cc1
[3]
  IC50: 56.8 µM (active)

## Cc1cc(OCC(=O)NNC(=O)c2cnccn2)cc(C)c1Cl
[4]
  AC50: 29.6 µM (active)

## Cc1ccc(-n2c(=O)c3sccc3n(Cc3cc(=O)n4ccccc4n3)c2=O)cc1F
[2]
  IC50: 9.86 µM (active)

## CC(=O)N1C(=O)/C(=C2\SC(=S)N(NS(=O)(=O)c3ccc(C)cc3)C2=O)c2ccccc21
[3]
  IC50: 3.22 µM (active)

## CCc1ccc(OCC(=O)Nc2ccncc2)c(Br)c1
[5]
  IC50: 38.1 µM (active)
[6]
  EC50: > 120 µM (not active)
[7]
  EC50: > 350 µM (not active)
[8]
  EC50: > 350 µM (not active)
[9]
  EC50: 13.9 µM (active)
[10]
  EC50: 17.4 µM (active)
[11]
  CC50: > 40 µM (active)

## O=c1c2cc(Cl)ccc2oc2nc3n(c(=O)c12)CCCS3
[5]
  IC50: 2.92 µM (active)
[11]
  CC50: > 40 µM (active)

## Nc1cc(OC(=O)c2c(F)cccc2Cl)nn1S(=O)(=O)c1ccccc1
[12]
  IC50: > 69.5 µM (inactive)
[13]
  IC50: > 69.5 µM (inactive)

## COc1ccc(S(=O)(=O)NCC(c2ccco2)N2CCc3ccccc32)cc1 (stereo unspecified)
[12]
  IC50: 38.4 µM (inactive)
[13]
  IC50: > 69.5 µM (inactive)

## CCOc1ccc(CNc2ccc(N3CCN(Cc4ccccc4)CC3)cc2)cc1
[14]
  IC50: 49.6 µM (active)
[15]
  EC50: > 260 µM (inactive)

## CC1(O)N(Cc2ccccc2)C(=O)OC12CCCCC2 (stereo unspecified)
[12]
  IC50: > 69.5 µM (inactive)
[13]
  IC50: > 69.5 µM (inactive)

## Cc1cc(C)c(NC(=O)c2ccc(S(=O)(=O)N(C)C)cc2)c(C)n1
[4]
  AC50: 29.4 µM (active)

## Cc1ccc2c(c1)-c1c(ssc1=S)C(C)(C)N2C(=O)CSC1=NCCS1
[16]
  AC50: 28.3 µM (active)
[17]
  EC50: 9.8 µM (active)
[14]
  IC50: 24.9 µM (active)

## COc1ccc(S(=O)(=O)NC2=NC(=O)/C(=C\c3ccco3)S2)cc1
[3]
  IC50: 99.1 µM (active)

## Cc1ccc2c(c1)[C@H]1[C@H](CO2)[C@H](c2ccccc2)[C@]2(C)C(=O)N(Cc3ccc(Cl)cc3)CC(=O)N12
[12]
  IC50: > 69.5 µM (inactive)
[13]
  IC50: > 69.5 µM (inactive)

## COCCOc1ccc(C(F)(F)F)cc1NC(=O)CN1C(=O)NC2(CCCc3ccccc32)C1=O (stereo unspecified)
[4]
  AC50: 33.9 µM (active)

## C[C@@H]1CCCCO[C@@H](CN(C)Cc2ccc(C(F)(F)F)cc2)[C@@H](C)CN([C@H](C)CO)C(=O)c2cc(NC(=O)NC3CCCCC3)ccc2O1
[18]
  AC50: 6.76 µM (active)

## COc1ccccc1NC(=O)N[C@@H]1C=C[C@H](CC(=O)N[C@H](C)c2ccccc2)O[C@H]1CO
[19]
  AC50: 7.16 µM (active)
[20]
  AC50: 8.31 µM (active)
[21]
  AC50: 6.98 µM (active)

## O=C(C[C@@H]1CC[C@H]2[C@@H](COC[C@@H](O)CN2Cc2ccc(Oc3ccccc3)cc2)O1)N1CCN(c2ccccc2)CC1
[19]
  AC50: 20.4 µM (active)
[20]
  AC50: 22.3 µM (active)
[21]
  AC50: 4.07 µM (active)

## C[C@H](C(=O)N(C)C[C@@H]1OCc2ccccc2-c2ccccc2C(=O)N([C@H](C)CO)C[C@@H]1C)c1ccccc1
[20]
  AC50: < 0.26 µM (active)
[21]
  AC50: < 0.26 µM (active)

## C[C@@H]1CN([C@@H](C)CO)S(=O)(=O)c2ccc(-c3ccc(F)cc3)cc2O[C@H]1CN(C)C(=O)C1CCCCC1
[4]
  AC50: 17.1 µM (active)
